In patent publication US10444227B2, “Neural networks formed from cells derived from pluripotent stem cells” (FUJIFILM Cellular Dynamics, Inc., priority 2014, dated 2019):
“Also recorded” adds a separate entry of the source.

Tested on: iCell® DopaNeuron cultures
Assay: Excitability pharmacology on network bursting, multi-electrode array (MEA) recording
Type: cell-based, human
Details: FIG. 11
Source text: The following methods may be used to culture neural cells on a Mestro Multielectrode Array (MEA). iCell® Neurons are thawed and plated into a 48-well MEA plate pre-coated with […] Polyethyleneimine (PEI; Sigma) solution. On day 1 post-plating, 100% of spent medium is replaced with Neurobasal-A medium (NBA; Life Technologies) +10% KnockOut Serum Replacement (KSR; Life Technologies). On day 5 post-plating, 50% of spent medium is replaced with NBA +10% KSR. On day 8 post-plating, baseline activity is recorded, cells are treated with compounds, and the activity is subsequently recorded.
Data analysis and acquisition may be performed using AxIS Software (Axion Integrated Studio, Axion BioSystems). At or after day 8 post-plating, the neuronal preparation may be suitable for data acquisition. Data acquisition can include a pre-application recording (baseline), a compound application recording, followed by a post-application recording (dose). Electrical activity may be acquired using the AxIS Software. The CDlneuronconfig.datastream file can ensure the appropriate data acquisition settings are loaded into the AxIS Software.
In these experiments, iCell® DopaNeurons, iCell® Neurons, and iCell® Astrocytes were obtained from Cellular Dynamics International, Inc. (Madison, Wis.), mixed and cultured on MEA plates as described in Example 1. Cells were cultured in BrainPhys media (Bardy et al., 2015) obtained from the Salk Institute (La Jolla, Calif.).
Two examples of excitability pharmacology, THIP (top) and L-655,708 (bottom), on iCell® DopaNeuron cultures are shown in FIG. 11. THIP activates tonic inhibition, while L-655,708 decreases tonic inhibition.

Compound | 'after-quiet' following network burst | continuous rumbling of activity | network burst intensity | network synchrony | post-bursting behaviors | post-burst rumbling time (duration of post-burst rumble) | time (duration) of the entire burst
CCOC(=O)c1ncn2c1[C@@H]1CCCN1C(=O)c1cc(OC)ccc1-2 [L-655,708] | abolished | inducing a continuous rumble of activity that dominated activity; also recorded: inducing a continuous rumbling of activity | neither pharmacological agent altered network burst intensity | de-synchronized the network | both altered post-bursting behaviors |  | 
Oc1noc2c1CCNC2 [THIP] |  |  | neither pharmacological agent altered network burst intensity |  | both altered post-bursting behaviors | shortened | shortened the time of the entire burst; also recorded: shortened the durations of the entire burst
